Results as given in the Deep4Chem optical property database.

Assay: solvent given as SMILES

COc1cc(/C=C/c2nc3ccccc3s2)c(OC)cc1/C=C/c1nc(C)nc(C)n1
emission maximum (in C1CCOC1): 488 nm
emission maximum (in CC#N): 499 nm
emission maximum (in ClC(Cl)Cl): 494 nm
emission maximum (in ClCCl): 496 nm

CN(C)c1ccc2nc(/C=C/c3ccccc3)c(=O)oc2c1
emission maximum (in C1CCCCC1): 488 nm
emission maximum (in C1COCCO1): 533 nm
emission maximum (in CC#N): 567 nm
emission maximum (in CC(C)=O): 557 nm
emission maximum (in CCCCCCC): 485 nm
emission maximum (in CCO): 574 nm
emission maximum (in CCOC(C)=O): 541 nm
emission maximum (in CN(C)C=O): 571 nm
emission maximum (in CS(C)=O): 581 nm
emission maximum (in Cc1ccccc1): 523 nm
emission maximum (in ClC(Cl)Cl): 542 nm
emission maximum (in ClCCl): 547 nm

C(=C\c1ncc2ccccc2n1)/c1ccc(N(c2ccccc2)c2ccccc2)cc1
emission maximum (in C1CCCCC1): 449 nm
emission maximum (in C1CCOC1): 498 nm
emission maximum (in CC#N): 543 nm
emission maximum (in CS(C)=O): 547 nm
emission maximum (in ClCCl): 520 nm

c1ccc(N(c2ccccc2)c2ccc(-n3ccc4cc(-c5ccc(C6(c7ccccc7)c7ccccc7-c7ccccc76)cc5)ccc43)cc2)cc1
emission maximum (in ClCCl): 379 nm

O=P1(c2ccccc2)C(c2cc(C(F)(F)F)cc(C(F)(F)F)c2)=Cc2c3ccc4cccc5ccc(c6cc(-c7ccc(N(c8ccccc8)c8ccccc8)cc7)n1c26)c3c45 (configuration not stated)
emission maximum (in C1CCCCC1): 558 nm
emission maximum (in C1CCOC1): 620 nm
emission maximum (in C1COCCO1): 595 nm
emission maximum (in CC#N): 645 nm
emission maximum (in CC(C)=O): 635 nm
emission maximum (in CO): 636 nm
emission maximum (in Cc1ccccc1): 586 nm
emission maximum (in ClC(Cl)Cl): 603 nm
emission maximum (in ClCCl): 622 nm

Cc1cc(=O)oc2cc3cc(O)ccc3cc12
emission maximum (in CC#N): 450 nm
emission maximum (in CCO): 466 nm

CCn1c(-c2ccc(-c3cccc4ccccc34)cc2)c(-c2ccc3ccccc3c2)c(-c2ccc3ccccc3c2)c1-c1ccc(-c2cccc3ccccc23)cc1
emission maximum (in CCOC(C)=O): 429 nm

CCOC(=O)CC[N+]1=c2cc3c(cc2CCC1)=Cc1c(c2cc4c5c(c2oc1=O)CCCN5CCC4)O3
emission maximum (in CC#N): 687 nm
emission maximum (in CO): 681 nm
emission maximum (in ClCCl): 676 nm
emission maximum (in O): 688 nm

COc1cc2c(cc1-c1ccc(C#N)cc1)Cc1c3c(c4c(c1-2)-c1cc(OC)c(-c2ccc(C#N)cc2)cc1C4)C(=O)N(CCC(C)C)C3=O
emission maximum (in C1CCOC1): 460 nm

Clc1ccccc1N1c2sc3ccccc3c2Sc2c1sc1ccccc21
emission maximum (in ClCCl): 541 nm

CC(=O)c1ccc(-c2cc(C)[o+]c(C)c2)cc1
emission maximum (in ClCCl): 405 nm

CCC1=C(C)C2=Cc3cc(I)cn3[B-](F)(F)[N+]2=C1C
emission maximum (in C1CCCCC1): 538.5 nm
emission maximum (in CC(C)=O): 541 nm
emission maximum (in CCO): 543 nm
emission maximum (in CCOC(C)=O): 540.5 nm
emission maximum (in CO): 542.5 nm
emission maximum (in OCC(F)(F)F): 540 nm

COc1ccc(-c2c3ccccc3c3n2[B-](F)(F)[N+]2=Cc4c5ccccc5c(-c5ccc(OC)cc5)n4[B-](F)(F)[N+]2=C3)cc1
emission maximum (in CC#N): 606 nm
emission maximum (in CCCCCC): 607 nm
emission maximum (in CN(C)C=O): 613 nm
emission maximum (in Cc1ccccc1): 616 nm
emission maximum (in ClCCl): 614 nm

O=c1oc2ccccc2cc1-c1ccc([N+](=O)[O-])cc1
emission maximum (in C1CCOC1): 421 nm
emission maximum (in CC#N): 409 nm
emission maximum (in CS(C)=O): 425 nm
emission maximum (in ClC(Cl)Cl): 400 nm

NCCCCCCCCCCCCN1C(=O)c2ccc3c4ccc5c6c(ccc(c7ccc(c2c37)C1=O)c64)C(=O)N(c1ccc(O)cc1)C5=O
emission maximum (in CN(C)C=O): 534 nm

CCC1=C(C)C(=O)n2c1cc1c(C)c(CCC(=O)O)c(C)n1c2=O
emission maximum (in CO): 535 nm
emission maximum (in CS(C)=O): 510 nm
emission maximum (in ClC(Cl)Cl): 490 nm
emission maximum (in c1ccccc1): 480 nm

Nc1ncnc2c1c(C#Cc1ccc3ccccc3c1)cn2[C@H]1C[C@H](O)[C@@H](CO)O1
emission maximum (in CC#N): 400 nm
emission maximum (in CCO): 371 nm
emission maximum (in CCOC(C)=O): 383 nm
emission maximum (in CO): 377 nm
emission maximum (in ClC(Cl)Cl): 374 nm

COCCOCCOCCOc1ccc(OCCOCCOCCOC)c(C=O)c1
emission maximum (in CC(C)(C)O): 444 nm
emission maximum (in CC(C)CO): 453 nm
emission maximum (in CC(C)O): 455 nm
emission maximum (in CCCCO): 458 nm
emission maximum (in CCCO): 459 nm
emission maximum (in CCO): 462 nm
emission maximum (in CN(C)C=O): 423 nm
emission maximum (in CNC=O): 458 nm
emission maximum (in CO): 468 nm
emission maximum (in NC=O): 463 nm
emission maximum (in O): 485 nm
